Where a name gives a salt, the structure may show the parent alone.
Columns and labels:
[1] = system: NQO1 specific enzyme activity in BEAS-2B cells; test: BEAS-2B NQO1 MTT Assay; type: cell-based; details: Homo sapiens, BEAS-2B, 48 h, NQO1 specific activity induction
How it was run: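 BEAS-2B cells exposed to compound for 48 h at 37 °C, 5% CO2, then lysed. NQO1 activity in crude lysate read kinetically by MTT cocktail absorbance at 570 nm over 30 min. pEC50 from ΔOD/min versus log concentration, 3-parameter fit.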

Keap1/NRF2 = target: T1, Keap1/NRF2 (Homo sapiens, UniProt Q14145); test: NRF2-Keap1 FP Assay (Kelch domain (321-609) of Keap1, TAMRA-labeled NRF2 ETGE peptide); type: binding; details: Keap1 (321-609) 20 nM, Tamra labeled peptide 8 nM
T1 construct: Keap1 (321-609) is diluted to 40 nM (2×) in 1× assay buffer
How it was run: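 Fluorescence polarization competition: Keap1 Kelch (321-609) at 20 nM final and TAMRA-ETGE 16-mer peptide at 8 nM final with 3-fold compound dilutions, 1 h room temperature in Tris pH 8.0 buffer (NaCl, MgCl2, DTT, CHAPS, BSA). mP normalized to protein+peptide and peptide-alone controls; pIC50 by four-parameter fit.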

NRF2/Keap1 = target: T2, NRF2/Keap1 (Homo sapiens, UniProt Q14145); test: NRF2-Keap1 TR-FRET Low Protein Assay (full length NRF2 and full length Keap1); type: binding; details: low protein: 1.25 nM Keap1 FlagHis, 2.5 nM biotin-NRF2 added
T2 construct: full length NRF2 protein and full length Keap1 protein (Keap1 exists a dimer) are used
Excerpt: In the NRF2-Keap1 TR-FRET (time-resolved fluorescence resonance energy transfer) low protein assay, full length NRF2 protein and full length Keap1 protein (Keap1 exists a dimer) are used. The assay detects a compound's ability to displace the binding of Keap1 FlagHis with biotinylated Avi-NRF2 protein. Biotin-NRF2 binds to streptavidin-europium (a component of the detection mix) and Keap1 FlagHis is recognized by anti-Flag APC (allophycocyanin) antibody (also a component of the detection mix). If binding occurs between the two proteins, there will be an energy transfer from the Eu+3 (donor) at 615 nm to the APC (acceptor) at 665 nm. A potential NRF2 inhibitor will cause a reduction in the TR-FRET signal by interfering with the binding of Keap1 to NRF2.
Ten nanoliters of 100× compound dose response curves (serial 3-fold dilutions) in DMSO are stamped using an Echo liquid handling system (Labcyte) into 384-well, low volume, black assay plates (Greiner, #784076), with DMSO in columns 6 and 18. An additional 90 nl DMSO is added to each well, to bring the total volume to 100 nl per well. The top concentration of compound is located in columns 1 and 13, with the serial dilutions going across the row. All reagents are diluted in assay buffer (50 mM Tris, pH 8.0, 5 mM MgCl2, 100 mM NaCl, 0.005% BSA, 1 mM DTT, and 2 mM CHAPS. The BSA, DTT, and CHAPS are added to the assay buffer on the day of assay. Using a Multidrop Combi (Thermo Electron Corporation) equipped with a metal tip dispenser, 5 ul of 1.25 nM Keap1 FlagHis protein is added to all wells of the compound plate, with the exception of the wells in column 18. Wells in column 18 receive 5 ul of assay buffer instead. Plates are centrifuged at 500 rpm for 1 minute, covered with a plate lid, and incubated at 37° C. for 2.25 hours. Plates are then removed from the incubator and allowed to cool to RT for 15 minutes. Five microliters of 2.5 nM biotin-NRF2 protein is then added to all wells of the plates and the plates are spun at 500 rpm for 1 minute, followed by incubating at 4° C. for 1.25 hours. The plates are then allowed to warm to RT for 15 minutes, followed by the addition of 10 ul of detection mix (1 nM Streptavidin Eu+ W1024 and 5 ug/ml mouse anti-DYKDDDDK IgG conjugated to SureLight APC antibody; both from Columbia Biosciences) to all wells. Plates are spun at 500 rpm for 1 minute, incubated for 1 hour at RT, and read on an Envision plate reader using a 320 nm excitation filter and 615 nm and 665 nm emission filters. Compound response (% inhibition) and potency (pIC50) are calculated based on the ratio of the two emissions (665 nm/615 nm) and then the transformed data is normalized against controls in the assay (control 1=1% DMSO in the presence of NRF2 and Keap1 protein and control 2=1% DMSO in the presence of only the NRF2 protein). Data analysis is handled using the software package Abase XE (Surrey, United Kingdom). The % inhibition values are calculated from the ratio (transformed) data by the equation: 100−(100*(compound response-average control 2)/(average control 1−average control 2)). For calculation of pIC50s, Abase XE uses a four parameter equation.

T1 sequence (Q14145 321-609): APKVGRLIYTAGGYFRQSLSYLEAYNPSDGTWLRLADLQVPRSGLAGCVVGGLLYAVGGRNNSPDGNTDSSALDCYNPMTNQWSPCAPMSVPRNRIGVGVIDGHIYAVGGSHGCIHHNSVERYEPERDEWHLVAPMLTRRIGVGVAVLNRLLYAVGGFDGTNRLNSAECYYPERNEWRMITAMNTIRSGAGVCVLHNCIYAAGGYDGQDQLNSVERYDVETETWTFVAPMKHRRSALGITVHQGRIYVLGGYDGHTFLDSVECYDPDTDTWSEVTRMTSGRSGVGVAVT
T2 sequence (Q14145 whole entry): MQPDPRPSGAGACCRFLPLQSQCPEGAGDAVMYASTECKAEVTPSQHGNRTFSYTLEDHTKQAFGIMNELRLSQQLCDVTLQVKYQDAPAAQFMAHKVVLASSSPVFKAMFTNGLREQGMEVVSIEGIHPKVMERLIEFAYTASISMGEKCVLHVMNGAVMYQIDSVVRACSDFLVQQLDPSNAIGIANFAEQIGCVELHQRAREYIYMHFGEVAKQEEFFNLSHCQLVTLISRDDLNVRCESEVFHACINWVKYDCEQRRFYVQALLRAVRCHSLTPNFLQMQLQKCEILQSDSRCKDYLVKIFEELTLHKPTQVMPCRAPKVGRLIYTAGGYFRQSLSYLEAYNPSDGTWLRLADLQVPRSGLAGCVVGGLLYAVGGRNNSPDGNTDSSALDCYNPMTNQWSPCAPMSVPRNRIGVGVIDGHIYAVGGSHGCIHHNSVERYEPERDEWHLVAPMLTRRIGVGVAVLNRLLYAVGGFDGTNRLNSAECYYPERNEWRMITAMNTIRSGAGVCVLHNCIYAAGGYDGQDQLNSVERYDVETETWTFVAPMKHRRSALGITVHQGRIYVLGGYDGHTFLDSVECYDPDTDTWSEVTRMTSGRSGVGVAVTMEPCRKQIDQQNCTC

## Cn1cc([C@@H]2C[C@H]2c2c(C(=O)O)cnn2-c2cccc(C3CCCN(C(=O)C(C)(C)C)C3)c2)nn1 (stereo partly drawn) [Example 32, 5-((1R,2R)-2-(1-methyl-1H-1,2,3-triazol-4-yl)cyclopropyl)-1-(3-(1-pivaloylpiperidin-3-yl)phenyl)-1H-pyrazole-4-carboxylic Acid]
[1]
  EC50: 100 to 1000 nM
Keap1/NRF2
  IC50: 10 to 100 nM
NRF2/Keap1
  IC50: 10 to 100 nM

## Cn1cc([C@@H]2C[C@H]2c2c(C(=O)O)cnn2-c2cccc(C3CCCN(C(=O)OC(C)(C)C)C3)c2)nn1 (stereo partly drawn) [Example 26, 1-(3-(1-(tert-butoxycarbonyl)piperidin-3-yl)phenyl)-5-((1R,2R)-2-(1-methyl-1H-1,2,3-triazol-4-yl)cyclopropyl)-1H-pyrazole-4-carboxylic Acid]
[1]
  EC50: 1000 to 10000 nM
Keap1/NRF2
  IC50: 10 to 100 nM
NRF2/Keap1
  IC50: 10 to 100 nM

## Cn1cc([C@@H]2C[C@H]2c2c(C(=O)O)cnn2-c2cccc(C3CCCN(CCc4ccccc4)C3)c2)nn1 (stereo partly drawn) [Example 29, 5-((1R,2R)-2-(1-Methyl-1H-1,2,3-triazol-4-yl)cyclopropyl)-1-(3-(1-phenethylpiperidin-3-yl)phenyl)-1H-pyrazole-4-carboxylic Acid, Hydrochloride]
[1]
  EC50: 1000 to 10000 nM
Keap1/NRF2
  IC50: 100 to 1000 nM
NRF2/Keap1
  IC50: 10 to 100 nM

Reference: US10351530B2, “Arylcyclohexyl pyrazoles as NRF2 regulators” (GlaxoSmithKline Intellectual Property Development Limited, priority 2015, dated 2019)
